Measured values: US7351875B2, “FcγRIIa transgenic animal model for autoimmune disease” (Trillium Therapeutics, Inc., priority 2002, dated 2008)

Key:
[1] = test system: FcγRIIa transgenic mice with CIA; assay: Collagen-induced arthritis (CIA) in FcγRIIa transgenic mice, arthritis index; assay type: in vivo, mouse; settings: FIG. 14
Text: In transgenic mouse models of the present invention the following mice strains were used DBA/1 (H-2^q) males at 8-12 weeks old, C57BL/6 (H-2^b) and (C57BL/6×SJ (H-2^b/s) males or females at 8-15 weeks old, and transgenic mice expressing the FcγRIIa human transgene on platelets, neutrophils and macrophages at physiological levels, (as described in McKenzie et al. 1999). Transgenic males or females at 12-15 weeks old were used in collagen-induced arthritis (CIA) experiments, and >25 weeks old for the spontaneous autoimmune disease studies. All mice were bred and kept in clean conditions and were fed a standard diet and water ad libitum. The mouse is characterised in the published paper by McKenzie et al. 1999, listed in references.
Complete Freund's Adjuvant (CFA) was prepared by mixing 100 mg heat-killed M tuberculosis H37 Ra (Difco Laboratories, Detroit, Mich.) ground in 20 ml Incomplete Freund's Adjuvant (Difco Laboratories, Detroit, Mich.). […]
Mice were examined 2-3 times per week from day 14 onwards. […] The score of each mouse was calculated for the four limbs (maximum total score of 12 for each mouse) (Campbell et al. 1997). […]
The score for each mouse was calculated by adding the scores of the four limbs (maximum score of 12 for each mouse) (Campbell et al. 1997). […]

[2] = test system: non transgenic DBA/1 mice with CIA; settings: Neurath, Hildner et al. 1999; cited from earlier work

For CN(Cc1cnc2nc(N)nc(N)c2n1)c1ccc(C(=O)N[C@@H](CCC(=O)O)C(=O)O)cc1 [methotrexate], the “delay of CIA” value ([1]; 1 mg/kg for 14 days from second collagen injection, day 21-35) is given as “effective in delaying CIA”, the “disease after treatment ceased” value ([1]; as immune function returned to normal after treatment ceased) is given as “increased in severity” and the “delay of CIA in DBA/1 mice” value [2] is given as “effective in delaying CIA”.
